Assay results reported in paper PMC8877721 (Journal of medicinal chemistry, 2021).

Key:
Vero cells = experiment: Alamar Blue cell viability assay, Vero cells; assay type: cell-based; settings: 2 days in culture
HUH7 cells [1] = experiment: Alamar Blue cell viability assay, HUH7 cells; assay type: cell-based, human; settings: 2 days in culture
ZIKV (strain PRABC59) [2] = experiment: Antiviral plaque assay, ZIKV; assay type: cell-based, Zika virus; settings: for reduction in ZIKV virus levels: 0.1 mM dose, MOI 0.1, plaque titration 4 days post-infection
WNV = experiment: Antiviral plaque assay, WNV; assay type: cell-based, West Nile virus; settings: MOI 0.1, 3 days post-infection
HUH7 cells [3] = experiment: In cellulo metabolism of 1 and ddhC to ddhCTP in HUH7 cells; assay type: cell-based, human; settings: 100 μM
ZIKV (strain PRABC59) [4] = settings: 1 mM ddhC over 24 h; cited from earlier work
HEK293 cells = HEK293 cells exposed to ddhC, after 48 h; cited from earlier work
ZIKV NS5 RdRp = ZIKV NS5 RdRp (Zika virus, UniProt A0A024B7W1); experiment: ZIKV RdRp-catalyzed nucleotide incorporation; assay type: biochemical; settings: synthetic ddhCTP
[5] = target: T1, DNA polymerase γ (catalytic domain) (Homo sapiens, UniProt P54098); experiment: Enzymatic incorporation of ddhCTP by DNA polymerase gamma; assay type: biochemical; settings: 100 μM nucleotide, 0, 10 or 20 min, gel electrophoresis
T1 sequence (P54098 1-1239): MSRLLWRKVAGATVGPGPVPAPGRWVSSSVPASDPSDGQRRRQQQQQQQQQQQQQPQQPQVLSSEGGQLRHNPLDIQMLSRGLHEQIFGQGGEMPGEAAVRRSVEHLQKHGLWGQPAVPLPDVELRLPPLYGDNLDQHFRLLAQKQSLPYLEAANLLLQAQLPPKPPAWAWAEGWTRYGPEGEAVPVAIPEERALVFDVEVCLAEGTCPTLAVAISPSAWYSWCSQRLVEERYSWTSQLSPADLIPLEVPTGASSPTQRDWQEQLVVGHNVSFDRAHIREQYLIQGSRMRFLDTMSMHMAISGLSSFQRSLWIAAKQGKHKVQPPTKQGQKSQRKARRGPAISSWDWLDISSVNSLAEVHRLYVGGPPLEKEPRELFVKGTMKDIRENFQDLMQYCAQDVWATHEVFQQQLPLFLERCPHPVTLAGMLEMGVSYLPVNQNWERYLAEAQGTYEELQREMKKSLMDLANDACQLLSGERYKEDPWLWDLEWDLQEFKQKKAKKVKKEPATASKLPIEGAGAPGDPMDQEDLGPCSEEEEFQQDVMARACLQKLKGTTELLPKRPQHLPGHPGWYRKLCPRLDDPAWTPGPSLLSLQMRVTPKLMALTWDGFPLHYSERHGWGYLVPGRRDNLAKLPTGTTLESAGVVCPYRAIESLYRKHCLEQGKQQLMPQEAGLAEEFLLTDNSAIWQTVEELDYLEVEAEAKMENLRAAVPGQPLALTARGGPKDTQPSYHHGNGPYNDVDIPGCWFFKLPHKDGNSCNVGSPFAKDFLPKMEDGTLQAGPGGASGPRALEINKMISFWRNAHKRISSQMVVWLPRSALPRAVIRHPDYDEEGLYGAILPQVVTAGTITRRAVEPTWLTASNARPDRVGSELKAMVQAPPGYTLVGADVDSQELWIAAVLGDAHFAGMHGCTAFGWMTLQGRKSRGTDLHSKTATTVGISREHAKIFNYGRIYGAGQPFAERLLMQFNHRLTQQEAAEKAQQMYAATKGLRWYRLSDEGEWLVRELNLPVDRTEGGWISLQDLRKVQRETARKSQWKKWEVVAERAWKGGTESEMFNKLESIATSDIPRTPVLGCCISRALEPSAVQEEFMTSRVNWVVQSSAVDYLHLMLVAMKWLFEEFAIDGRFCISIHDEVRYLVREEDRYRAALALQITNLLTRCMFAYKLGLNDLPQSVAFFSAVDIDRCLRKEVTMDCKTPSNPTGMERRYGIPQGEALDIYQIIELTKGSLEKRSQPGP

[6] = PAMPA assay; cited from earlier work

Chain of ZIKV NS5 RdRp (A0A024B7W1 2521-3423): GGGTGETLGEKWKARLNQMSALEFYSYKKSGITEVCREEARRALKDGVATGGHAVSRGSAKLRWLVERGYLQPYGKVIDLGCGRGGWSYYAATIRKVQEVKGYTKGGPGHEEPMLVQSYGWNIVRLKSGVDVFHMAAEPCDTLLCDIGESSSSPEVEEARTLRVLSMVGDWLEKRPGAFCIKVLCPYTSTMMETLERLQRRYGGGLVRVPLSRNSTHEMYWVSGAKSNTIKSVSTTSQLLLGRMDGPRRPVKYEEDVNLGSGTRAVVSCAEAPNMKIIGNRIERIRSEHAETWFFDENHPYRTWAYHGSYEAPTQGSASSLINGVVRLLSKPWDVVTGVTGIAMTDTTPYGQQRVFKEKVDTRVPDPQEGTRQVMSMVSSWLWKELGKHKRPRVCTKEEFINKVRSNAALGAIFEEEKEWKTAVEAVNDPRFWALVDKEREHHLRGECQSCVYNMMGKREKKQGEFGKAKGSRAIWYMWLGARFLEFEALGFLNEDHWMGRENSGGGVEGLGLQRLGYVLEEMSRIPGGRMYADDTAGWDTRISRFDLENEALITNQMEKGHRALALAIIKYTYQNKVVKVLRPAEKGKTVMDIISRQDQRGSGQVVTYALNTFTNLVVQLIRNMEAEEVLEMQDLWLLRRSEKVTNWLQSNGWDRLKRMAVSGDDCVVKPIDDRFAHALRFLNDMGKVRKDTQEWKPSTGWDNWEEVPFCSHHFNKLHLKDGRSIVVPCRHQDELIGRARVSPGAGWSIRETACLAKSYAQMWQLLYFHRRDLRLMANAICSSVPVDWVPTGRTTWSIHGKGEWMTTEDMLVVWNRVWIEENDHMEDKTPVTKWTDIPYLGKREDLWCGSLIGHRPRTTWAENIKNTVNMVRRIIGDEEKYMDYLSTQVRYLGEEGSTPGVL

In the case of `CC(C)OC(=O)[C@H](C)NP(=O)(OCC1=C[C@@H](O)[C@H](n2ccc(N)nc2=O)O1)Oc1ccccc1` (stereo in doubt) [compound 1, Isopropyl ((S)-(((4R,5R)-5-(4-amino-2-oxopyrimidin-1(2H)-yl)-4-hydroxy-4,5-dihydrofuran-2-yl)methoxy)(phenoxy)phosphoryl)-L-alaninate], the “cytotoxicity (in words)” value (Vero cells) was “neither ddhC nor 1 were cytotoxic”, the “cytotoxicity (in words)” value (HUH7 cells [1]) was “neither ddhC nor 1 were cytotoxic” and the “reduction in ZIKV virus levels” value (ZIKV (strain PRABC59) [2]; HUH7 cells) was over 1 log10 pfu/mL. The “reduction in ZIKV virus levels” value (ZIKV (strain PRABC59) [2]; HUH7.5 cells) was over 1 log10 pfu/mL, the “activity against ZIKV in Vero cells (in words)” value (ZIKV (strain PRABC59) [2]; Vero cells, MOI 0.1, 4 days post-infection, compared with HUH7 and HUH7.5) was “weaker activity” and the “reduction of WNV levels” value (WNV; HUH7 cells) was over 4 log10 pfu/mL. For the same compound, the “reduction of WNV levels” value (WNV; HUH7.5 cells) was over 4 log10 pfu/mL, the “activity against WNV (in words)” value (WNV; Vero cells) was “inactive” and the “dosed compound in HUH7 lysate 24 h following dosage (cell permeable)” value (HUH7 cells [3]) was “detected”.
In the case of `Nc1ccn([C@@H]2OC(CO)=C[C@H]2O)c(=O)n1` [ddhC, 3’-deoxy-3’,4’-didehydro-cytidine], the “cytotoxicity (in words)” value (Vero cells) is listed as “neither ddhC nor 1 were cytotoxic”, the “reduction of ZIKV levels in infected Vero cells” value (ZIKV (strain PRABC59) [4]) is listed as 50-200 x and the ddhCTP produced (HEK293 cells) is listed as ~ 100 μM. For the same compound, the “cytotoxicity (in words)” value (HUH7 cells [1]) was “neither ddhC nor 1 were cytotoxic”, the “activity against WNV (in words)” value (WNV; HUH7 cells) was “ineffective” and the “activity against WNV (in words)” value (WNV; HUH7.5 cells) was “ineffective”. For the same compound, the “activity against WNV (in words)” value (WNV; Vero cells) was “ineffective” and the “dosed compound in HUH7 lysate 24 h following dosage (cell permeable)” value (HUH7 cells [3]) was “detected”.
For `Nc1ccn([C@@H]2OC(COP(=O)(O)OP(=O)(O)OP(=O)(O)O)=C[C@H]2O)c(=O)n1` [ddhCTP, 3’-Deoxy-3’,4’-didehydrocytidine-5’-triphosphate], the “mode of action in primer extension assay (in words)” value (ZIKV NS5 RdRp) was “obligate chain terminator” and the “substrate for DNA polymerase γ (in words)” value [5] was “not a substrate”.
In the case of `CC(C)OC(=O)[C@H](C)N[P@](=O)(OC[C@H]1O[C@@H](n2ccc(=O)[nH]c2=O)[C@](C)(F)[C@@H]1O)Oc1ccccc1` [sofosbuvir], the Papp [6] is listed as 0.046 ×10⁻⁶ cm/s.
